According to patent US4297096A, “Alkyl, alkenyl, and aryl substituted triazene compounds, their salts and production thereof” (Fujisawa Pharmaceutical Co. Ltd., priority 1980, dated 1981):

Test: Solubility
Assay type: physicochemical
[1] = Benzene, hexane and ether, crystals of Example 1
[2] = Benzene, hexane and ether, crystals of Example 2 (pure)
[3] = Chloroform, ethyl acetate, methanol and acetone, crystals of Example 1
[4] = Chloroform, ethyl acetate, methanol and acetone, crystals of Example 2 (pure)
[5] = water, crystals of Example 2 (pure)

With `CCC/C=C/C/C=C/C=C/C=NN=NO` [FR-900190] the Solubility [1] was “Sparingly soluble”, the Solubility [2] was “Sparingly soluble” and the Solubility [3] was “Soluble”. For the same molecule, the Solubility [4] was “Soluble”, the Solubility (water, crystals of Example 1) was “Insoluble” and the Solubility [5] was “Insoluble”.

With `CCCC/C=C/C=C/C=C/C=NN=NO` [FR-900184] the Solubility [1] was “Sparingly soluble”, the Solubility [2] was “Sparingly soluble” and the Solubility [3] was “Soluble”. For the same molecule, the Solubility [4] was “Soluble”, the Solubility (water, crystals of Example 1) was “Insoluble” and the Solubility [5] was “Insoluble”.
